# Test results: PubChem BioAssay (NCI)
#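 Five concentrations, 48 hours, 96-well plates. The concentration for 50% growth inhibition is given as GI50. TGI is the concentration that stops growth completely.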
# Legend:
# Assay in all cases: inhibition of tumour cell growth, NCI panel, 48 h
# [1] = test system: EKVX NSCLC
# [2] = test system: NCI-H226 lung
# [3] = test system: SN12C renal
# [4] = test system: SNB-19 CNS
# [5] = test system: T-47D breast
# [6] = test system: UACC-257 melanoma
# [7] = test system: TK-10 renal
# [8] = test system: OVCAR-5 ovarian
# [9] = test system: MDA-MB-231 breast
# [10] = test system: ACHN renal
# [11] = test system: OVCAR-4 ovarian
# [12] = test system: PC-3 prostate
# [13] = test system: HCC-2998 colon
# [14] = test system: HCT-15 colon
# [15] = test system: NCI/ADR-RES ovarian
# [16] = test system: MCF7 breast
# [17] = test system: SW-620 colon
# [18] = test system: K-562 leukemia
# [19] = test system: OVCAR-3 ovarian
# [20] = test system: HOP-92 NSCLC
# [21] = test system: SF-268 CNS
# [22] = test system: SF-295 CNS
# [23] = test system: RPMI-8226 leukemia
# [24] = test system: SK-MEL-28 melanoma
# [25] = test system: CAKI-1 renal
# [26] = test system: 786-0 renal
# [27] = test system: NCI-H522 lung
# [28] = test system: DU-145 prostate
# [29] = test system: HL-60(TB) leukemia
# [30] = test system: SNB-75 CNS
# [31] = test system: MDA-MB-435
# [32] = test system: RXF 393 renal
# [33] = test system: HCT-116 colon
# [34] = test system: BT-549 breast
# [35] = test system: SF-539 CNS
# [36] = test system: SK-MEL-2 melanoma
# [37] = test system: MOLT-4 leukemia
# [38] = test system: A498 renal
# [39] = test system: HS 578T breast
# [40] = test system: CCRF-CEM leukemia
# [41] = test system: MALME-3M melanoma
# [42] = test system: UO-31 renal
# [43] = test system: UACC-62 melanoma
# [44] = test system: COLO 205 colon
# [45] = test system: M14 melanoma
# [46] = test system: NCI-H460 lung
# [47] = test system: A549 NSCLC
# [48] = test system: U251 CNS
# [49] = test system: SR leukemia
# [50] = test system: SK-MEL-5 melanoma
# [51] = test system: KM12 colon
# [52] = test system: IGROV1 ovarian
# [53] = test system: LOX IMVI melanoma
# [54] = test system: OVCAR-8 ovarian
# [55] = test system: HOP-62 NSCLC
# [56] = test system: NCI-H23 lung
# [57] = test system: SK-OV-3 ovarian
compound,measurement,setting,value
N#Cc1c(N)c2c(c(-c3ccccc3)c1-c1ccccc1)C(=O)N(NC(=S)Nc1ccccc1)C2=O,TGI,[1],> 100 µM
same,TGI,[2],> 100 µM
same,TGI,[3],> 100 µM
same,TGI,[4],> 100 µM
same,TGI,[5],> 100 µM
same,TGI,[6],> 100 µM
same,TGI,[7],> 100 µM
same,TGI,[8],> 100 µM
same,TGI,[9],> 100 µM
same,TGI,[10],> 100 µM
same,TGI,[11],> 100 µM
same,TGI,[12],> 100 µM
same,TGI,[13],> 100 µM
same,TGI,[14],> 100 µM
same,TGI,[15],> 100 µM
same,TGI,[16],> 100 µM
same,TGI,[17],> 100 µM
same,TGI,[18],> 100 µM
same,TGI,[19],> 100 µM
same,TGI,[20],> 100 µM
same,TGI,[21],> 100 µM
same,TGI,[22],> 100 µM
same,TGI,[23],> 100 µM
same,TGI,[24],> 100 µM
same,TGI,[25],> 100 µM
same,TGI,[26],> 100 µM
same,TGI,[27],> 100 µM
same,TGI,[28],> 100 µM
same,TGI,[29],> 100 µM
same,TGI,[30],> 100 µM
same,TGI,[31],> 100 µM
same,TGI,[32],93.8 µM
same,TGI,[33],> 100 µM
same,TGI,[34],> 100 µM
same,TGI,[35],> 100 µM
same,TGI,[36],> 100 µM
same,TGI,[37],> 100 µM
same,TGI,[38],> 100 µM
same,TGI,[39],> 100 µM
same,TGI,[40],> 100 µM
same,TGI,[41],> 100 µM
same,TGI,[42],> 100 µM
same,TGI,[43],> 100 µM
same,TGI,[44],> 100 µM
same,TGI,[45],> 100 µM
same,TGI,[46],> 100 µM
same,TGI,[47],> 100 µM
same,TGI,[48],> 100 µM
same,TGI,[49],> 100 µM
same,TGI,[50],> 100 µM
same,TGI,[51],> 100 µM
same,TGI,[52],> 100 µM
same,TGI,[53],> 100 µM
same,TGI,[54],> 100 µM
CCOC(=O)C#Cc1c(C(=O)OCC)nnn1Cc1ccc(C(F)(F)F)cc1,GI50,[1],16.6 µM
same,TGI,[1],31.2 µM
same,GI50,[55],17 µM
same,TGI,[55],32 µM
same,GI50,[2],1.72 µM
same,TGI,[2],3.63 µM
same,GI50,[3],2.42 µM
same,TGI,[3],6.08 µM
same,GI50,[4],19.4 µM
same,TGI,[4],44.8 µM
same,GI50,[5],2.08 µM
same,TGI,[5],5.66 µM
same,GI50,[6],3.69 µM
same,TGI,[6],11 µM
same,GI50,[56],11.5 µM
same,TGI,[56],27.6 µM
same,GI50,[7],2.08 µM
same,TGI,[7],4.55 µM
same,GI50,[8],9.75 µM
same,TGI,[8],22 µM
same,GI50,[9],4.05 µM
same,TGI,[9],14 µM
same,GI50,[10],1.92 µM
same,TGI,[10],3.56 µM
same,GI50,[11],3.22 µM
same,TGI,[11],11.7 µM
same,GI50,[12],9.38 µM
same,TGI,[12],22 µM
same,GI50,[13],18.1 µM
same,TGI,[13],32.7 µM
same,GI50,[14],1.95 µM
same,TGI,[14],4.46 µM
same,GI50,[15],7.49 µM
same,TGI,[15],40.7 µM
same,GI50,[16],2.52 µM
same,TGI,[16],10.1 µM
same,GI50,[17],2.08 µM
same,TGI,[17],4.36 µM
same,GI50,[18],1.77 µM
same,TGI,[18],8.3 µM
same,GI50,[19],1.73 µM
same,TGI,[19],3.32 µM
same,GI50,[20],2.53 µM
same,TGI,[20],5.7 µM
same,GI50,[21],8.12 µM
same,TGI,[21],25.7 µM
same,GI50,[22],17.5 µM
same,TGI,[22],32.9 µM
same,GI50,[23],2.53 µM
same,TGI,[23],7.21 µM
same,GI50,[24],2.47 µM
same,TGI,[24],5.91 µM
same,GI50,[25],2.09 µM
same,TGI,[25],4.58 µM
same,GI50,[26],2.58 µM
same,TGI,[26],6.29 µM
same,GI50,[27],2.4 µM
same,TGI,[27],4.47 µM
same,GI50,[28],3.9 µM
same,TGI,[28],15.1 µM
same,GI50,[29],1.3 µM
same,TGI,[29],3.85 µM
same,GI50,[30],9.31 µM
same,TGI,[30],21.4 µM
same,GI50,[31],3.72 µM
same,TGI,[31],14.5 µM
same,GI50,[57],19.4 µM
same,TGI,[57],38.6 µM
same,GI50,[32],1.68 µM
same,TGI,[32],3.24 µM
same,GI50,[33],1.8 µM
same,TGI,[33],3.5 µM
same,GI50,[34],2.93 µM
same,TGI,[34],8.65 µM
same,GI50,[36],15.1 µM
same,TGI,[36],28.7 µM
same,GI50,[37],1.73 µM
same,TGI,[37],6.85 µM
same,GI50,[38],16.9 µM
same,TGI,[38],30.6 µM
same,GI50,[39],22.5 µM
same,TGI,[39],59.5 µM
same,GI50,[40],1.07 µM
same,TGI,[40],4.92 µM
same,GI50,[41],2.08 µM
same,TGI,[41],4.9 µM
same,GI50,[42],1.8 µM
same,TGI,[42],3.47 µM
same,GI50,[43],1.93 µM
same,TGI,[43],4.36 µM
same,GI50,[44],2.32 µM
same,TGI,[44],5.29 µM
same,GI50,[45],2.46 µM
same,TGI,[45],5.82 µM
same,GI50,[46],11.5 µM
same,TGI,[46],27.1 µM
same,GI50,[47],20.6 µM
same,TGI,[47],39.2 µM
same,GI50,[48],10.9 µM
same,TGI,[48],22.8 µM
same,GI50,[49],1.06 µM
same,TGI,[49],4.48 µM
same,GI50,[50],9.92 µM
same,TGI,[50],21.5 µM
same,GI50,[51],11.8 µM
same,TGI,[51],25.5 µM
same,GI50,[52],14.2 µM
same,TGI,[52],30.8 µM
same,GI50,[53],0.692 µM
same,TGI,[53],2.09 µM
same,GI50,[54],4.37 µM
same,TGI,[54],15 µM
